“Also recorded” adds a separate entry of the source.
Experiments:
SIV/HIV-2 antibodies = test: EIA of HIV-2 gp32 peptide-protein conjugates against macaque serum pools; type: binding; details: peptide conjugated via C-terminus to BSA (SMCC), coated at 10 micrograms peptide/ml; 1:101 dilution of SIV+ macaque serum pool; Figure 5
Procedure: The free peptides or peptide-protein conjugates of Figures 1-13 were initially screened for immunoreactivity by coating each well of polystyrene microtiter EIA plates (Costar, Cambridge, Massachusetts, U.S.A.) with 0.2 ml amounts of concentrations of 5-50 micrograms/ml peptide in Tris buffer, 10 mM, pH 8.0, at 4°C overnight. Peptides or peptide-protein conjugates showing immunoreactivity by EIA were then further diluted for coating to determine the minimal concentrations required that allowed maximal immunoreactivity with antibodies to HIV, and minimal nonspecific reactivity with normal sera. The EIA tests were performed as follows: The coating solution was removed from each well and the wells were blocked at 37°C for 30 minutes with a solution of 50 mM phosphate, 100 mM NaCl, pH 7.4, 1% BSA, 0.5% gelatin. The wells were then aspirated dry with a microtiter plate washer and washed 3 times with a solution of 50 mM phosphate, 100 mM NaCl, .05% Tween 20, (trademark) pH 7.4 (PBST). […] Reactions were stopped with 50 microliters of 4N H₂SO₄, and the color development was quantitated in a Multiscan plate reader at A₄₉₂. […] Most peptides and peptide conjugates were initially screened against a 1:101 dilution of pools of HIV positive or HIV negative sera, and the same serum pool was used to allow quantitative comparison of immunoreactivity of different free peptides or peptide-protein conjugates.
The peptides in Figures 1 and 5 were synthesized as described in Example 1 and conjugated to KLH or BSA as described in Example 2. These peptide-protein conjugates were coated to polystyrene microtiter plates all at a concentration 10 micrograms peptide/ml and evaluated for immunoreactivity as described in Example 3, using a 1:101 dilution of a pool of sera (HIV+/SIV+, respectively) containing antibodies to HIV-1 (Figure 1) or to HIV-2 (Figure 5), as well as pooled serum (HIV-/SIV-, respectively) containing no antibodies to HIV-1 or HIV-2. […]

antibodies to HIV-2 = test: EIA of HIV-2 peptide-BSA conjugates with macaque sera; type: binding; details: macaque sera containing or not containing antibodies to HIV-2, Figure 7
Procedure: The synthetic peptides of Figures 1-8 were reduced with 10mM DTT, or with immobilized DTT (Reductacryl, Calbiochem, San Diego, California, U.S.A., 10 mg Reductacryl per mg peptide) overnight at 4°C, pH8 in 10mM borate or other buffers depending upon peptide solubility, with gentle mixing. KLH was dissolved at a concentration of 10-30 mg/ml in 10 mM phosphate buffer pH 7.2., and BSA was dissolved at a concentration of 20-80 mg/ml for treatment with heterobifunctional linkers MBS (m-Maleimidobenzoyl-N-hydroxysuccinimide ester), SPDP [N-Succinimidyl 3-(2 pyridyldithio)propionate], or Sulfo-SMCC [Sulfo-Succinimidyl 4(N-maleimidomethyl)-cyclohexane-1-carboxylate]. The heterobifunctional linkers were added to the protein solutions in a molar excess of linker to BSA of 100, or of linker to KLH of 1000. MBS was dissolved in DMF at 10mg/ml, SPDP was dissolved in absolute ethanol at 10mg/ml and each of these was added dropwise with mixing into the protein solution, whereas the Sulfo-SMCC dry powder was dissolved into the protein solution. Each protein-linker mixture was reacted at room temperature for 15 minutes to 1 hour and then free linker was separated from BSA-linker or KLH-linker by gel chromatography with Sephadex G25 using 50mM phosphate, pH 6 for KLH-MBS, 10mM acetate, 100 mM Nacl, pH 4.6 for BSA-SPDP, or 100 mM phosphate, 1 mM EDTA, pH 6.5 for BSA-SMCC. The reduced peptides were separated from DTT by Sephadex G10 column chromatography when soluble DTT was used, or by centrifugation followed by filtration through a 0.22 micron filter when Reductacryl was used. Reduced peptides were combined with linker treated KLH or BSA in molar ratios of 100-1000 peptide/KLH-MBS, 1-50 peptide/BSA-SMCC, and 0.1-10 peptide/BSA-SPDP. Each reduced peptide was added to the linker-treated protein with mixing, overlayed with N₂, and then mixed gently at room temperature for one hour, and then overnight at 4°C. The SMCC-BSA conjugates were further treated with a 1 mM final concentration of mercaptoethylamine for 4 hours, and then dialyzed overnight against 100 volumes of buffer (20mM phosphate, 1 mM EDTA, 0.05% sodium azide, pH 6.5) at 4°C. All other conjugates were adjusted to a final concentration of sodium azide of 0.05%. Optimal molar ratios of peptide/protein for the conjugates were determined by solubility and antigenicity (as evaluated by EIA).
The free peptides or peptide-protein conjugates of Figures 1-13 were initially screened for immunoreactivity by coating each well of polystyrene microtiter EIA plates (Costar, Cambridge, Massachusetts, U.S.A.) with 0.2 ml amounts of concentrations of 5-50 micrograms/ml peptide in Tris buffer, 10 mM, pH 8.0, at 4°C overnight. […]

antibodies to HIV-1 [1] = test: EIA of HIV-1 gp41 peptide-protein conjugates against serum pools; type: binding, human; details: peptide conjugated via C-terminus to BSA (SMCC), coated at 10 micrograms peptide/ml; 1:101 dilution of HIV+ serum pool; Figure 1
Procedure: (§1) The free peptides or peptide-protein conjugates of Figures 1-13 were initially screened for immunoreactivity by coating each well of polystyrene microtiter EIA plates (Costar, Cambridge, Massachusetts, U.S.A.) with 0.2 ml amounts of concentrations of 5-50 micrograms/ml peptide in Tris buffer, 10 mM, pH 8.0, at 4°C overnight. Peptides or peptide-protein conjugates showing immunoreactivity by EIA were then further diluted for coating to determine the minimal concentrations required that allowed maximal immunoreactivity with antibodies to HIV, and minimal nonspecific reactivity with normal sera. The EIA tests were performed as follows: The coating solution was removed from each well and the wells were blocked at 37°C for 30 minutes with a solution of 50 mM phosphate, 100 mM NaCl, pH 7.4, 1% BSA, 0.5% gelatin. The wells were then aspirated dry with a microtiter plate washer and washed 3 times with a solution of 50 mM phosphate, 100 mM NaCl, .05% Tween 20, (trademark) pH 7.4 (PBST). A 1:101 dilution (in PBST with 1% BSA, 1% NRS) of the primate serum to be tested was then added as 0.2 ml to each washed well and the plates were incubated at 37°C for 30 minutes. The plates were then washed x 3 with PBST, and 0.2 ml amounts of a 1:2000 dilution of goat anti-human (GAH) peroxidase enzyme conjugate (Organon Teknika, Cappel, Melvern, Pennsylvania, U.S.A.) that recognized human IgG, IgA, and IgM were added to each well, and the plates were incubated for 30 minutes at 37°C. The plates were then washed x 3 with PBST and incubated with 0.2 ml/well substrate consisting of 0,1M citric acid pH 5.2, 0.1 mg/ml o-phenylene diamine, 0.01% H₂O₂, at room temperature in the dark for 10 minutes. Reactions were stopped with 50 microliters of 4N H₂SO₄, and the color development was quantitated in a Multiscan plate reader at A₄₉₂. In each series of experiments positive and negative controls were included, and all tests were done in duplicate or quadruplicate. Most peptides and peptide conjugates were initially screened against a 1:101 dilution of pools of HIV positive or HIV negative sera, and the same serum pool was used to allow quantitative comparison of immunoreactivity of different free peptides or peptide-protein conjugates.
The peptides in Figures 1 and 5 were synthesized as described in Example 1 and conjugated to KLH or BSA as described in Example 2. These peptide-protein conjugates were coated to polystyrene microtiter plates all at a concentration 10 micrograms peptide/ml and evaluated for immunoreactivity as described in Example 3, using a 1:101 dilution of a pool of sera (HIV+/SIV+, respectively) containing antibodies to HIV-1 (Figure 1) or to HIV-2 (Figure 5), as well as pooled serum (HIV-/SIV-, respectively) containing no antibodies to HIV-1 or HIV-2. […] Since sera from patients infected with HIV-2 are relatively unavailable in the United States, the immunoreactivity of HIV-2 synthetic peptides was assessed using serum from macaques infected with SIV, obtained from the University of Washington Primate Center, Seattle, Washington, U.S.A. The AA sequence of SIV is nearly identical to HIV-2 in the region of the peptides synthesized (see Myers et al., Human Retroviruses and AIDS, 1988. A compilation of nucleic acid and amino acid sequences. Los Alamos National Laboratory, Los Alamos, New Mexico, 87545, USA).

antibodies to HIV-1 [2] = test: EIA of peptide-carrier conjugates with individual human sera; type: binding; details: BSA-SMCC conjugate; 98 sera containing antibodies to HIV-1; Figures 10B, 10C, 11
Procedure: as §1
Figure 10A illustrates the immunoreactivity of synthetic natural peptides 2S06 and 2S09 (Figure 1) when conjugated via their C-terminal GC spacer to KLH using the heterobifunctional linker MBS. […] However, the immunoreactivity of many of the positives was low (A₄₉₂ less than 1.0), and some of the negative samples had A₄₉₂ values slightly above 0.20, resulting in minimal discrimination between negatives and positives. This poor discrimination led to a search for an improved carrier protein and/or linker.
Figure 10B illustrates the reactivity of synthetic natural peptide IWGCSGKLICTTAVPGC (2S09) when conjugated through its C-terminus to BSA via the heterobifunctional linker SMCC. […] Improvement in assay performance as compared with results of Example 5A is noted with respect to negative samples having lower A₄₉₂ values, and most positive samples having higher A₄₉₂ values. […] Because of the possibility that some of the low responsiveness might be due to antigenic differences of genetic variants in the region of this epitope, as reported for HIV isolates from Zaire (Gnann et al., Science 237:1346-1349, 1987), the natural sequence variant peptide 5S67 (Figure 3) was synthesized, chemically linked to BSA with SMCC, and tested against the same sera, plus one additional negative serum sample (Figure 10C). […] This instigated a search for unnatural sequence variants of peptide 2S09 that would retain high immunoreactivity with most sera that contained antibodies to HIV-1, and yet retain low reactivity with sera devoid of antibodies to HIV. […]

antibodies to HIV-1 [3] = test: Rapid test with peptide-BSA-colloidal gold conjugate; type: binding, human
Procedure: A test device for performing rapid tests in less than 15 minutes was prepared as illustrated in Figures 14 and 15. Referring to Figures 14 and 15, the device comprises a plastic slide 10 (approximately 1 inch wide by 3/16 inch thick by 3 1/4 inches long) having a plurality of funnel-like wells 12, each having a capacity of approximately 200 microliters, an upper inflow tract rim 14 diameter of approximately 9 mm and a lower outflow tract 16 diameter of approximately 2 mm. The undersurface of the outflow tract 16 is designed so as to provide a smooth even contact with a membrane filter 18 placed next to it in the apparatus. The membrane filter separates reactants passing through it by size, retaining those particles above a predetermined size, such as above 0.22 µm, or above 0.45 µm in size (depending upon the specific filter chosen), though other filters placed into the apparatus might separate by binding or affinity (i.e. nitrocellulose, glass). […]
An 8 ml quantity of peptide IWGCSGKLICTTAVPGC (A280nm∼=0.50) conjugated via its C-terminus and SMCC to BSA was dialyzed overnight against 2L of DI water at 4°C. […] The A₅₈₀ of each well was determined and the lowest values, indicating best protection, were at pH6.1>pH6.0>> other pH's. Using larger amounts of gold sol at pH6.1 the minimal amount of protective protein was determined to be 70 microliters of the dialyzed peptide-BSA (A₂₈₀ = 0.45). […]

Sequence | immunoreactivity with SIV/HIV-2 antibodies (SIV/HIV-2 antibodies) | discrimination of positive from negative samples (antibodies to HIV-2) | immunoreactivity with HIV-1 antibodies (antibodies to HIV-1 [1]) | immunoreactivity with positive sera (antibodies to HIV-1 [2]) | result with positive serum samples (red-purple dots) (antibodies to HIV-1 [3]; 20 sera containing antibodies to HIV-1, diluted 1:100) | result with negative sera (antibodies to HIV-1 [3]; 20 sera without antibodies to HIV-1)
DQARLNSWGCAFRQVC [2S24] | maximally immunoreactive; also recorded: Significant immunoreactivity; also recorded: best immunoreactivity | most favorable performances |  |  |  | 
IWGCSGKLICTTAVPGC [2S09] |  |  | maximally immunoreactive; also recorded: higher reactivity; also recorded: Significant immunoreactivity; also recorded: slightly superior immunoreactivity | very low immunoreactivity | 19 of the 20 | only the white color of the underlying membrane remained
SWGCAFRQVCHTSVPGC [5S86] |  | most favorable performances |  |  |  | 
SWGCAFRQVCHTTVPGC [2S27] | maximally immunoreactive; also recorded: Significant immunoreactivity; also recorded: best immunoreactivity | most favorable performances |  |  |  | 
